Source: patent EP4806891A1 (Kangbaida (Sichuan) Biotechnology Co., Ltd., priority 2023, dated 2025)

Tests used:
HEK-Blue-hTLR8 cells = target: T1, HEK-Blue-hTLR8 cells (Homo sapiens, UniProt Q9NR97); assay: HEK-Blue-hTLR8 cell inhibition assay; format: cell-based; details: R848 3 µM, 16 h, OD 620 nm, read-out: TLR8 IC50
T1 construct: expressed in transfected cells; host or cells: HEK-Blue-hTLR8 cells (HEK293-derived reporter line)
T1 sequence (Q9NR97 27-1041): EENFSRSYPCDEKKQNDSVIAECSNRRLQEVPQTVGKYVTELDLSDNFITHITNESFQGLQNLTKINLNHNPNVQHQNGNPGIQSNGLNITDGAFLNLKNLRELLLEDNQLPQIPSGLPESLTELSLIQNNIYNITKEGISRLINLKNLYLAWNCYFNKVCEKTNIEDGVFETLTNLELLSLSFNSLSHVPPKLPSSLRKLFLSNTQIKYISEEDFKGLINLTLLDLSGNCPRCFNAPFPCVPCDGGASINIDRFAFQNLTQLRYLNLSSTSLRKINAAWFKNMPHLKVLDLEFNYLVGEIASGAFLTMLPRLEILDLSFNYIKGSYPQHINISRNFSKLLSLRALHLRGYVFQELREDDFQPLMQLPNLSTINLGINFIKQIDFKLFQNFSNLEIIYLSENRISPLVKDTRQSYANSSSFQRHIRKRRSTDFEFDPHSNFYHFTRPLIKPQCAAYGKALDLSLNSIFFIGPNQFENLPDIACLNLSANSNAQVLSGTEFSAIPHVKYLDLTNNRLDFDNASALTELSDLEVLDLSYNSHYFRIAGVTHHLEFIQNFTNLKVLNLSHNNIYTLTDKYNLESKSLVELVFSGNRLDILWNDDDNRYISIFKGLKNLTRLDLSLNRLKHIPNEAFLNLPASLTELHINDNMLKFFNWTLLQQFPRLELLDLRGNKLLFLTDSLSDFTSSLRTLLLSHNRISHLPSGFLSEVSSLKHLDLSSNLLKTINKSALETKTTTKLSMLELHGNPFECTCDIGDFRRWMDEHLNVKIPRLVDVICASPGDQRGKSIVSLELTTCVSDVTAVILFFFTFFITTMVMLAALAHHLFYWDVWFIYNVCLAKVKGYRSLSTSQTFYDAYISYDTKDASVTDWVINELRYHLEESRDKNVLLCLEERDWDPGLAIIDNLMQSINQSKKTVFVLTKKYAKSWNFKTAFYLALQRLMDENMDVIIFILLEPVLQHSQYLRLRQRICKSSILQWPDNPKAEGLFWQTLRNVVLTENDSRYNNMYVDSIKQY
Description: (§1) HEK-Blue-hTLR7/8/9 cell inhibition assay
(§2) 1. HEK-Blue-hTLR7/8 cells (1 × 10^4 cells/well) and HEK-Blue-hTLR9 cells (1.5 × 10^4 cells/well) were seeded in a 384-well cell culture plate, with a volume of 30 µL per well. The plate was incubated at 37°C in a 5% CO2 incubator for 4 h. 2. The compound was prepared with DMSO and diluted in DMEM medium to 10 concentrations (1:3 dilution), with final concentrations of 10000, 3333.3, 1111.1, 370.4, 123.5, 41.2, 13.7, 4.6, 1.5, and 0.5 nM; R848 was prepared with DMSO and diluted in DMEM medium, with final concentrations of 0.8 µM (HEK-Blue-hTLR7) and 3 µM (HEK-Blue-hTLR8); ODN2006 was prepared with endotoxin-free water and diluted in DMEM medium, with a final concentration of 1 µM. 3. Cells treated with DMSO were used as the blank control group, while cells treated solely with Resiquimod (R848) were used as the positive control group for HEK-Blue-hTLR7/8, and cells treated solely with ODN2006 were used as the positive control group for HEK-Blue-hTLR9. Cells treated with the test compound together with R848 or ODN2006 were used as the test group. Two parallel wells were set for each group and were placed at 37°C in a 5% CO2 incubator for incubation. 4. After being incubated for 4 h, the 384-well plate of HEK-Blue-hTLR7/8 was taken out from the incubator, and R848 alone or both R848 and the diluted compound were separately added into each well. The plate was placed at 37°C in a 5% CO2 incubator for incubation for 16 h; the 384-well plate of HEK-Blue-hTLR9 was taken out from the incubator, and ODN2006 alone or both ODN2006 and the diluted compound were added separately to each well. The plate was incubated at 37°C in a 5% CO2 incubator for 16 h. 5. After being incubated for 16 h, the 384-well plate was removed from the incubator and centrifuged at 1000 rpm for 1 minute. The optical density value of each well at 620 nm was measured using a multifunctional microplate reader. 6. The cell inhibition rate was calculated as (1-(OD620 test group-OD620 blank group)/(OD620 positive group-OD620 blank group))×100%, and the half maximal inhibitory concentration (IC50) was calculated through curve fitting. Table 1: Activity of the compounds of the present disclosure in HEK-Blue-hTLR7/8/9 cellular assays

HEK-Blue-hTLR7 cells = target: T2, HEK-Blue-hTLR7 cells (Homo sapiens, UniProt Q9NYK1); assay: HEK-Blue-hTLR7 cell inhibition assay; format: cell-based; details: R848 0.8 µM, 16 h, OD 620 nm, read-out: TLR7 IC50
T2 construct: expressed in transfected cells; host or cells: HEK-Blue-hTLR7 cells (HEK293-derived reporter line)
T2 sequence (Q9NYK1 27-1049): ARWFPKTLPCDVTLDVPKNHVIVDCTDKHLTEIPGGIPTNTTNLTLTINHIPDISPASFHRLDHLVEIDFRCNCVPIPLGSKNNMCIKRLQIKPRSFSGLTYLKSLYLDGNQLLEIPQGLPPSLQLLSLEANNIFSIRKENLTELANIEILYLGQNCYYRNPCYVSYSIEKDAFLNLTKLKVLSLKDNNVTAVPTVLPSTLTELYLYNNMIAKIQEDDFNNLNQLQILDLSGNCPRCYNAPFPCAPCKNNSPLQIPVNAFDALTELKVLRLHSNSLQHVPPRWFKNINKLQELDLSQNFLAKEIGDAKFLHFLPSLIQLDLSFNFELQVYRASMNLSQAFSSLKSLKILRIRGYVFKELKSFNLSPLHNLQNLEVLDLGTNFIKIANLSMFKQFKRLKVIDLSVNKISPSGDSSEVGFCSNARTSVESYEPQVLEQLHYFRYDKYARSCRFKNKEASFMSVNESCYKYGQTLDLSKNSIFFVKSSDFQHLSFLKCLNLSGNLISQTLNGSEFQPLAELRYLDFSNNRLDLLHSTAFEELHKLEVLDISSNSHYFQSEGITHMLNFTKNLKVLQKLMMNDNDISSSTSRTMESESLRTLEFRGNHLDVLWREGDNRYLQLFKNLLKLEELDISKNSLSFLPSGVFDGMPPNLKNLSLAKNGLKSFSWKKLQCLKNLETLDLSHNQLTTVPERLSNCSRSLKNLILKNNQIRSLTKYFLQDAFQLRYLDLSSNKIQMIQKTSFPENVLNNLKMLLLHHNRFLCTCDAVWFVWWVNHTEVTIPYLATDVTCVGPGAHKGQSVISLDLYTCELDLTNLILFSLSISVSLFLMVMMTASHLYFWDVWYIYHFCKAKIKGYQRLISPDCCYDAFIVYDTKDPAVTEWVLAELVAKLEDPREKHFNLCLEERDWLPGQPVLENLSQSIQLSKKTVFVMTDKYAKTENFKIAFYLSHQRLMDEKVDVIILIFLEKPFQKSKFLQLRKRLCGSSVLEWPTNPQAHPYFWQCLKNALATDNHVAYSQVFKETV
Description: as §1, §2

| SMILES | IC50 (HEK-Blue-hTLR8 cells) [nM] | IC50 (HEK-Blue-hTLR7 cells) [nM] |
| --- | --- | --- |
| CN1CCC(n2cnc([C@]34CN(c5ccc(C#N)n6ncc(F)c56)C[C@@]3(C(F)(F)F)C4)n2)CC1 [Compound 74, 3-fluoro-4-((1S,5R)-1-(1-(1-methylpiperidin-4-yl)-1H-1,2,4-triazol-3-yl)-5-(trifluoromethyl)-3-azabicyclo[3.1.0]hexan-3-yl)pyrazolo[1,5-a]pyridine-7-carbonitrile] | < 100 | < 100 |
| CN(C)C12CCC(c3nnc([C@]45CN(c6ccc(C(F)(F)F)c7ncccc67)C[C@@]4(C(F)(F)F)C5)o3)(CC1)CC2 [Compound 82, N,N-dimethyl-4-(5-((1S,5R)-5-(trifluoromethyl)-3-(8-(trifluoromethyl)quinolin-5-yl)-3-azabicyclo[3.1.0]hexan-1-yl)-1,3,4-oxadiazol-2-yl)bicyclo[2.2.2]octan-1-amine] | < 100 | < 100 |
| Cc1ccc2c(N3C[C@]4(c5nnc(C6CCN(C)CC6)o5)C[C@]4(C(F)(F)F)C3)ccc(C#N)c2n1 [Compound 73, 2-methyl-5-((1S,5R)-1-(5-(1-methylpiperidin-4-yl)-1,3,4-oxadiazol-2-yl)-5-(trifluoromethyl)-3-azabicyclo[3.1.0]hexan-3-yl)quinoline-8-carbonitrile] | > 1000 | > 1000 |
| CN1CCC(c2nnc([C@]34CN(c5ccc(C(F)(F)F)c6nccnc56)C[C@@]3(C(F)(F)F)C4)o2)CC1 [Compound 88, 2-(1-methylpiperidin-4-yl)-5-((1S,5R)-5-(trifluoromethyl)-3-(8-(trifluoromethyl)quinoxalin-5-yl)-3-azabicyclo[3.1.0]hexan-1-yl)-1,3,4-oxadiazole] | < 100 | < 100 |
| Cc1ccc(N2C[C@]3(c4nnc(C5CCN(C)CC5)o4)C[C@]3(C(F)(F)F)C2)c2cccnc12 [Compound 65, 2-(1-methylpiperidin-4-yl)-5-((1S,5R)-5-(trifluoromethyl)-3-(8-methylquinolin-5-yl)-3-azabicyclo[3.1.0]hexan-1-yl)-1,3,4-oxadiazole] | < 100 | < 100 |
| N#Cc1ccc(N2C[C@]3(c4nnc(OCCN5CCCC5)o4)C[C@]3(C(F)(F)F)C2)c2cccnc12 [Compound 48, 5-((1S,5R)-1-(5-(2-(pyrrolidin-1-yl)ethoxy)-1,3,4-oxadiazol-2-yl)-5-(trifluoromethyl)-3-azabicyclo[3.1.0]hexan-3-yl)quinoline-8-carbonitrile] | < 100 | < 100 |
